Measured values as given in ChEMBL document CHEMBL4354832, “Discovery of a Covalent Inhibitor of KRASG12C (AMG 510) for the Treatment of Solid Tumors” (J Med Chem, 2020).
In brackets after ≈: the same amount, converted by molar mass. Activity calls are given as the source filed them. The rule behind the calls is not given here.

Key:
GTPase KRas [1] = target: GTPase KRas (Homo sapiens, UniProt P01116, C118A/G12C); assay: Inhibition of GDP bound recombinant human His-tagged KRAS G12C/C118A mutant (1 to 169 residues) assessed as reduction in SOS1-mediated GDP/GTP nucleotide exchange by measuring the disruption between GDP-bound recombinant His-tagged KRAS G12C/C118A (1 to 169 residues) and Ras binding domain of GST-tagged c-RAF (1 to 149 residues) preincubated for 5 mins followed by SOS1 and GTP addition and further incubated for 30 mins by AlphaLISA assay
GTPase KRas [2] = target: GTPase KRas (Homo sapiens, UniProt P01116); assay: Inhibition of KRAS in human MIAPaca2 cells assessed as decrease in EGF-stimulated ERK1/2 phosphorylation preincubated for 2 hrs followed by EGF stimulation; type: cell-based
MIA PaCa-2 = assay: Antiproliferative activity against human MIAPaCa2 cells harboring KRAS G12C point mutant assessed as cell growth inhibition after 72 hrs by Celltiter-Glo luminescent cell viability assay; type: functional, cell-based; conditions: MIA PaCa-2, 72 h
A549 = assay: Antiproliferative activity against human A549 cells harboring KRAS G12S point mutant assessed as cell growth inhibition after 72 hrs by Celltiter-Glo luminescent cell viability assay; type: functional, cell-based; conditions: A549, 72 h
[3] = Intrinsic clearance in mouse cryopreserved hepatocytes assessed per 10^6 cells at 0.5 uM measured upto 60 mins by LCMS analysis; type: ADME, cell-based, Hepatocyte; conditions: read-out: CLH
[4] = Intrinsic clearance in human cryopreserved hepatocytes assessed per 10^6 cells at 0.5 uM measured upto 60 mins by LCMS analysis; type: ADME, cell-based, Hepatocyte; conditions: read-out: CLH
[5] = Permeability of compound across apical to basolateral membrane in MDCK2 cells at 10 to 50 uM incubated for 2 hrs under shaking condition by LC-MS/MS analysis; type: ADME, cell-based, Canis lupus familiaris, MDCK-II; conditions: dog, MDCK; read-out: permeability
[6] = Solubility of compound in PBS buffer at pH 7.4 incubated for 48 to 72 hrs under shaking conditions by LCMS analysis; type: physicochemical
[7] = Solubility of compound in FaSSIF incubated for 48 to 72 hrs under shaking conditions by LCMS analysis; type: physicochemical
[8] = Solubility of compound in 0.01N HCl at pH 2 incubated for 48 to 72 hrs under shaking conditions by LCMS analysis; type: physicochemical
[9] = Clearance in BALB/c mouse at 1 mg/kg, iv or 10 mg/kg, po; type: ADME, organism-based; conditions: in vivo
[10] = Volume of distribution at steady state in BALB/c mouse at 1 mg/kg, iv or 10 mg/kg, po; type: ADME, organism-based; conditions: in vivo, read-out: Vdss
[11] = Half life in BALB/c mouse at 1 mg/kg, iv or 10 mg/kg, po; type: ADME, organism-based; conditions: in vivo
[12] = Oral bioavailability in BALB/c mouse at 10 mg/kg; type: ADME, organism-based; conditions: in vivo
[13] = Half life of compound at 25 degree C; type: physicochemical
[14] = Protein binding in BALB/c mouse plasma assessed as unbound fraction by ultracentrifugation; type: ADME, cell-free
[15] = Ratio of unbound plasma concentration in BALB/c mouse at 10 mg/kg to IC50 for inhibition of KRAS in human MIAPaca2 cells assessed as decrease in EGF-stimulated ERK1/2 phosphorylation preincubated for 2 hrs followed by EGF stimulation; type: organism-based; conditions: in vivo
Mus musculus = assay: Decrease in ERK1/ERK2 phosphorylation in human MIAPaCa2 cells xenografted in athymic nude mouse at 10 to 100 mg/kg, po administered as single dose measured after 60 to 120 mins post-treatment; type: functional, organism-based

| SMILES | IC50 (GTPase KRas [1]) [nM] | IC50 (GTPase KRas [2]) [nM] | IC50 (MIA PaCa-2) [nM] | IC50 (A549) [nM] | hepatocyte CLint at 0.5 µM [3] [µL/min/1e6 cells] | hepatocyte CLint at 0.5 µM [4] [µL/min/1e6 cells] | Papp A→B at 2 h, up to 50 µM [5] [×10⁻⁶ cm/s] | solubility thermodynamic [6] [µM] | solubility thermodynamic [7] [µM] | solubility thermodynamic [8] [µM] | clearance [9] [mL/min/kg] | Vd [10] [L/kg] | half-life [11] [min] | bioavailability [12] [%] | t1/2 [13] [h] | fraction unbound [14] | Ratio [15] | inhibition (Mus musculus) |
| --- | --- | --- | --- | --- | --- | --- | --- | --- | --- | --- | --- | --- | --- | --- | --- | --- | --- | --- |
| C=CC(=O)N1CCN(c2nc(=O)n(-c3ccccc3C(C)C)c3nc(-c4c(O)cccc4F)c(Cl)cc23)[C@@H](C)C1 (stereo in doubt; (R)-18) | 51 | 44 | 5 | 14200 | 119 | 38 | 9 | 9 (≈ 5.06 µg/mL) | 184 (≈ 103 µg/mL) | 7 (≈ 3.93 µg/mL) | 6.67 | 0.4 | 78 | 33 | 5 |  |  |  |
| C=CC(=O)N1CCN(c2nc(=O)n(-c3ccccc3C(C)C)c3nc(-c4ccccc4O)c(Cl)cc23)[C@@H](C)C1 |  |  | 13 | 12200 | 288 | 82 | 18 | 88 (≈ 47.9 µg/mL) | 299 (≈ 163 µg/mL) | 57 (≈ 31 µg/mL) | 28.3 | 0.8 | 30 | 10 |  |  |  |  |
| C=CC(=O)N1CCN(c2nc(=O)n(-c3c(C(C)C)ncnc3C(C)C)c3nc(-c4c(O)cccc4F)c(Cl)cc23)[C@@H](C)C1 | 21 | 25 |  |  |  |  |  |  |  |  | 38.3 |  | 48 | 13 |  | 0.03 | 0.8 |  |
| C=CC(=O)N1CCN(c2nc(=O)n(-c3c(CC)cccc3CC)c3nc(-c4c(O)cccc4F)c(Cl)cc23)[C@@H](C)C1 | 68 | 36 |  |  |  |  |  |  |  |  | 55 |  | 30 | 8 |  | 0.03 | 0.8 |  |
| C=CC(=O)N1CCN(c2nc(=O)n(-c3ccccc3C(C)C)c3nc(-c4c(O)cccc4F)c(Cl)cc23)[C@@H](C)C1 (stereo in doubt; (S)-18) |  |  |  |  |  |  |  |  |  |  |  |  |  |  | 190 |  |  |  |
| C=CC(=O)N1CCN(c2nc(=O)n(-c3c(C)cccc3C(C)C)c3nc(-c4c(O)cccc4F)c(Cl)cc23)[C@@H](C)C1 |  | 28 | 2 | 11900 | 102 | 30 | 15 | 12 (≈ 6.91 µg/mL) | 204 (≈ 118 µg/mL) | 9 (≈ 5.18 µg/mL) | 23.3 to 45 |  | 30 to 54 | 4 to 21 |  | 0.03 | 4.5 | Active |
| C=CC(=O)N1CCN(c2nc(=O)n(-c3c(C4CC4)ncnc3C3CC3)c3nc(-c4c(O)cccc4F)c(Cl)cc23)[C@@H](C)C1 |  | 36 |  |  |  |  |  |  |  |  | 55 |  | 30 | 7 |  | 0.08 | 0.6 |  |
| C=CC(=O)N1CCN(c2nc(=O)n(-c3c(C)ncnc3C(C)C)c3nc(-c4c(O)cccc4F)c(Cl)cc23)[C@@H](C)C1 |  |  | 3 | > 50000 | 139 | 5 | 1 | 499 (≈ 288 µg/mL) | 500 (≈ 289 µg/mL) | 421 (≈ 243 µg/mL) | 58.3 | 0.4 | 18 | < 0.5 |  |  |  |  |
| C=CC(=O)N1CCN(c2nc(=O)n(-c3c(C(C)C)ccnc3C)c3nc(-c4c(O)cccc4F)c(Cl)cc23)[C@@H](C)C1 |  |  | 3 | 32400 | 96 | 5 | 2 | 335 (≈ 193 µg/mL) | 435 (≈ 251 µg/mL) | 534 (≈ 308 µg/mL) | 23.3 | 1.4 | 24 | < 0.5 |  |  |  |  |
| C=CC(=O)N1CCN(c2nc(=O)n(-c3c(C)cccc3C(C)C)c3nc(-c4c(O)cccc4F)c(F)cc23)[C@@H](C)C1 |  |  | 11 | 11600 | 111 | 37 | 22 | 41 (≈ 22.9 µg/mL) | 164 (≈ 91.8 µg/mL) | 24 (≈ 13.4 µg/mL) | 33.3 | 1.1 | 30 | < 0.5 |  |  |  |  |
| C=CC(=O)N1CCN(c2nc(=O)n(-c3scnc3C(C)C)c3nc(-c4c(O)cccc4F)c(Cl)cc23)[C@@H](C)C1 |  | 63 |  |  |  |  |  |  |  |  | 36.7 |  | 66 | 22 |  | 0.02 | 1.5 |  |
| C=CC(=O)N1CCN(c2nc(=O)n(-c3ccccc3C(C)C)c3nc(-c4c(O)cccc4F)c(Cl)cc23)CC1 |  |  | 11 | 11500 | 109 | 32 | 6 | 14 (≈ 7.67 µg/mL) | 204 (≈ 112 µg/mL) | 14 (≈ 7.67 µg/mL) | 13.3 | 0.5 | 90 | 1.3 |  |  |  |  |
| C=CC(=O)N1CCN(c2nc(=O)n(-c3c(C)ccnc3C(C)C)c3nc(-c4c(O)cccc4F)c(Cl)cc23)[C@@H](C)C1 |  |  | 1 | 34100 | 75 | 11 | 1 | 46 (≈ 26.5 µg/mL) | 381 (≈ 220 µg/mL) | 500 (≈ 289 µg/mL) | 65 | 0.8 | 24 | < 0.5 |  |  |  |  |
